# US10294202B2, “Pyrrolidinones as herbicides” (FMC Corporation, priority 2013, dated 2019)
# Assays:
# ryegrass, Italian = assay: Test A pre-/postemergence herbicide test; type: in vivo, Lolium multiflorum
# Method in brief: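 Formulated compound (non-phytotoxic solvent, surfactant) sprayed pre- onto soil of seeded loam/sand pots or post- onto seedlings at 1–2 leaves; ~10 d greenhouse; 0–100 visual control rating versus untreated.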
# chickweed = assay: Test C postemergence herbicide test; type: in vivo, Stellaria media
# Method in brief: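 Greenhouse pot plants at 2 to 18 cm height (1- to 4-leaf stage) received a postemergence application of formulated test chemical. Visual ratings against untreated controls were made after 13 to 15 days, on a 0 (no effect) to 100 (complete control) scale.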
# ducksalad = assay: Test C flooded paddy test; type: in vivo, Heteranthera limosa; details: Flood
# Method in brief: (§1)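 2-leaf stage; flood 3 cm over soil; compound into paddy water; depth held; greenhouse 13–15 d; visual % control vs untreated (0 = none, 100 = complete); "-" = not tested.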
# barnyardgrass = assay: Test C flooded paddy test; type: in vivo, Echinochloa crus-galli; details: Flood
# Method in brief: as §1
# kochia = assay: Test C pre-/postemergence herbicide test; type: in vivo, Kochia scoparia; details: Postemergence
# Method in brief: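 Compound solutions contained surfactant in a non-phytotoxic solvent. These were sprayed onto pots of loam/sand sown with seeds, and onto young plants (2 to 18 cm, 1- to 4-leaf) in sphagnum peat–vermiculite mix. Visual injury scores (0 none, 100 complete control) were recorded after 13 to 15 days.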
# sedge, umbrella = assay: Test C flooded paddy test; type: in vivo, Cyperus difformis; details: Flood
# Method in brief: as §1
# [1] = 16 g ai/ha, scale 0 to 100 (0 no effect, 100 complete control)
# [2] = 31 g ai/ha, scale 0 to 100 (0 no effect, 100 complete control)
# [3] = 62 g ai/ha, scale 0 (no effect) to 100 (complete control)
# [4] = 125 g ai/ha, scale 0 to 100 (0 no effect, 100 complete control)
# [5] = 62 g ai/ha, scale of 0 to 100 where 0 is no effect and 100 is complete control, 13 to 15 days
# [6] = 125 g ai/ha, scale of 0 to 100 where 0 is no effect and 100 is complete control, 13 to 15 days
# [7] = 250 g ai/ha, scale of 0 to 100 where 0 is no effect and 100 is complete control, 13 to 15 days
compound,measurement,setting,value
CN1CC(c2cccc(C(F)(F)F)c2)C(C(=O)Nc2ccccc2F)C1=O (stereo not drawn) [Compound 277],"Plant response rating, Ryegrass, Italian","ryegrass, Italian; Postemergence, 125 g ai/ha, visual rating on 0 to 100 scale (0 no effect, 100 complete control), approx. 10 days",30
same,"Plant response rating, Ryegrass, Italian","ryegrass, Italian; Postemergence, 500 g ai/ha, 0 to 100 scale (0 no effect, 100 complete control)",40
same,"Plant response rating, Ryegrass, Italian","ryegrass, Italian; Preemergence, 125 g ai/ha, 0 to 100 scale where 0 is no effect and 100 is complete control",30
same,"Plant response rating, Ryegrass, Italian","ryegrass, Italian; preemergence, 500 g ai/ha, 0 to 100 scale, 0 is no effect and 100 is complete control",30
same,"Plant response rating, Chickweed",chickweed; [1],0
same,"Plant response rating, Chickweed",chickweed; [2],40
same,"Plant response rating, Chickweed",chickweed; [3],0
same,"Plant response rating, Chickweed",chickweed; [4],40
same,"Plant response rating, Ducksalad",ducksalad; [5],65
same,"Plant response rating, Ducksalad",ducksalad; [6],80
same,"Plant response rating, Ducksalad",ducksalad; [7],85
same,"Plant response rating, Ducksalad","ducksalad; 500 g ai/ha, scale 0 to 100",95
same,"Plant response rating, Barnyardgrass",barnyardgrass; [5],50
same,"Plant response rating, Barnyardgrass",barnyardgrass; [6],65
same,"Plant response rating, Barnyardgrass",barnyardgrass; [7],70
same,"Plant response rating, Barnyardgrass","barnyardgrass; 500 g ai/ha, scale 0 to 100",70
same,"Plant response rating, Kochia",kochia; [1],0
same,"Plant response rating, Kochia",kochia; [2],0
same,"Plant response rating, Kochia",kochia; [3],5
same,"Plant response rating, Kochia",kochia; [4],60
same,"Plant response rating, Sedge, Umbrella","sedge, umbrella; [5]",0
same,"Plant response rating, Sedge, Umbrella","sedge, umbrella; [6]",0
same,"Plant response rating, Sedge, Umbrella","sedge, umbrella; [7]",0
same,"Plant response rating, Sedge, Umbrella","sedge, umbrella; 500 g ai/ha, scale 0 to 100",0
